These results are taken from US6811965B2, “Kidney perfusion solution containing nitric oxide donor, inhibitor of NOS2, glutathione, gluconate and methods of use” (priority 2000, dated 2004).

Experiment [1] relates to porcine coronary arteries. As to conditions: porcine model of balloon angioplasty and subsequent endovascular radiation; cited from earlier work.
Another experiment deals with Porcine kidneys. Description: Pulsatile perfusion preservation of explanted porcine kidneys. As to conditions: GSNO 90 micromolar, L-NIL 694 micromolar. As to the method: GSNO and L-NIL dihydrate hydrochloride were purchased from Alexis Corporation (San Diego, Calif.). Solution A was prepared by weighing out 30 milligrams of GSNO powder and adding it to 1 milliliter of Belzer Machine Perfusion solution (Transmed, Elk Grove, Minn.), and then injecting it into 1 liter of Belzer Perfusion solution while the perfusion solution was circulating through a Waters Instruments (Rochester, Minn.) kidney perfusion circuit (final concentration: 30 milligrams/liters; 90 micromolar). Solution B was prepared by weighing out 187 milligrams of L-NIL dihydrate hydrochloride powder and adding it to 3.5 milliliters of Belzer Machine Perfusion solution, and then injecting it into Solution A while the solution was circulating through a Waters Instruments kidney perfusion circuit (final concentration: 187 milligrams/liter; 694 micromolar).
Porcine kidneys were obtained following a warm ischemic time of 30-45 minutes. The kidneys were flushed with 1 L of Lactated Ringer's solution at 5 degrees C., and then flushed with 1 L Viaspan™ solution (DuPont, Wilmington, Del.) at 5 degrees C. The kidneys were then stored at 5 degrees C. for 3-30 h, at which time the kidneys were placed on a Waters Instruments (Rochester, Minn.) kidney perfusion circuit and perfused with 1 L of Belzer Machine Perfusion solution (Transmed, Elk Grove, Minn.). During the perfusion period, the kidneys were kept at a constant pressure of 40 mmHg. Eight kidneys were perfused with Belzer Machine Perfusion solution only, another eight kidneys were perfused with Belzer Machine Perfusion solution containing solution A (prepared as in Example 1), and a further eight kidneys were perfused with Belzer Machine Perfusion solution containing Solution B (prepared as in Example 1).
Hourly samples (3 ml total) were taken from each kidney for at least 5 hours, and in some cases 6 hours. Blood chemistry was analyzed using a GEMStat analyzer (Instruments Laboratory, Boston, Mass.). Statistical analyses were performed using Sigmastat software (SPSS, Chicago, Ill.).

The mark [2] stands for this setting: statistically significant effect relative to control perfusion solution, 5-6 h.

As for `N[C@@H](CCC(=O)N[C@@H](CSN=O)C(=O)NCC(=O)O)C(=O)O` [GSNO, S-nitrosoglutathione], the thrombosis result in experiment [1] is on record as “suppress thrombosis”. In addition, the “Vascular Resistance” value in the experiment on Porcine kidneys (statistically significant effect relative to control (Belzer Machine Perfusion solution only), constant pressure 40 mmHg, hourly samples 5-6 h) is reported as “Lower”. In the experiment on Porcine kidneys (setting [2]), the “Base Excess” value is given as “More”, the “Ca2+” value is “Higher”, the Hematocrit entry is recorded as “Lower” and the “Oxygen Saturation” value is reported as “Equal”. For the same compound, in the experiment with Porcine kidneys (statistically significant effect relative to control perfusion solution, 40 mmHg, 5-6 h), the Flow entry is “Higher”.
